Assay results reported in patent US7629156B2, “Ethanol production in fermentation of mixed sugars containing xylose” (E.I. du Pont de Nemours and Company, priority 2006, dated 2009).

What was measured:
Type in all cases: cell-based, Zymomonas mobilis
[1] = tested on: ZW658 strain; test: Flask growth of ZW658 on glucose and xylose with sorbitol 0.5-10 mM; details: after 14.25 hours, total sugar about 160 g/L
Procedure: (§1) Approximately 1 ml of well mixed sample was obtained from flask or fermentor. First the sample absorbance was measured directly with a spectrophotometer (Amersham Biosciences Ultrospec 3300pro, GE Healthcare, Piscataway, N.J., USA). If the reading was lower than 0.6 unit, no dilution was needed. If the reading was higher than 0.6 unit, the sample was diluted with culture medium until the actual reading was in the range of 0.1 to 0.6 unit. The original OD was calculated from the dilution ratio and the actual reading.
(§2) Glycerol stock of seed frozen at −80° C. was thawed, then inoculated into sterile culture tubes with mixture of 60 g/L glucose, 20 g/L xylose, 10 g/L yeast extract (YE), 10 g/L KH2PO4, 2 g/L (NH4)2SO4, and 1 g/L MgSO4. Initial pH was adjusted to 5.5 with 4 N KOH. This revival culture was grown statically overnight at 37° C. It was transferred into shake flasks with 75 g/L glucose, 25 g/L xylose, 10 g/L yeast extract (YE), 10 g/L KH2PO4, 2 g/L (NH4)2SO4, and 1 g/L MgSO4. Initial pH was adjusted to 5.5 with 4 N KOH. Growth was monitored by measuring OD600. When the OD reached approximately 5, a certain volume of the seed was withdrawn into a sterile syringe for inoculation.
In five sterilized 125 ml Erlenmeyer culture flasks (Cat. No. 30180-036, VWR International, USA), 10 ml of ZW658 strain seed culture at OD600 of approximately 5 (measured at 600 nm) was inoculated into each flask with 100 ml of aqueous solution containing 100 g/L glucose, 80 g/L xylose, 10 g/L yeast extract (YE), 10 g/L KH2PO4, 2 g/L (NH4)2SO4, 1 g/L MgSO4.7H2O, and various concentrations of sorbitol (0, 0.5, 1, 2, and 10 mM). After inoculation, the total sugar concentration was about 160 g/L due to dilution by the seed culture. Initial pH was adjusted to 5.5 with 4 N KOH solution. Mixing speed was set at 150 rpm. Fermentation was conducted at 33° C. and pH was not controlled. Samples were taken periodically. Samples were diluted with medium (as described in General Methods) and the OD600 was measured to monitor cell growth. […] Cultures with higher concentration of sorbitol, in this range, grew faster and better. After 14.25 hours, the OD600 were 4.19, 7.10, 8.08, 8.62, and 10.1, respectively, for sorbitol concentrations of 0, 0.5, 1, 2, and 10 mM.

[2] = tested on: ZW658 strain; test: Flask fermentation of ZW658 on glucose and xylose with various polyols; details: 10 mM polyol
Procedure: as §1
(§3) The analysis of sugars, acetate, ethanol, and other by-products was done with an Agilent 1100 series HPLC and Agilent ChemStation software for LC 3D. The column was BioRad Aminex HPX-87H(HPLC Organic Analysis Column 125-0140) with BioRad Micro-Guard Cartridge Cation-H (125-0129). The operating conditions were:
as §2
In five sterilized 125 ml Erlenmeyer culture flasks (Cat. No. 30180-036, VWR International, USA), 10 ml of ZW658 strain seed culture at OD600 of approximately 5 was inoculated into each flask with 100 ml of aqueous solution containing 100 g/L glucose, 80 g/L xylose, 10 g/L yeast extract (YE), 2 g/L KH2PO4, 1 g/L MgSO4.7H2O, and 4 g/L KHCO3, and 10 mM of one of the following polyols: erythritol, sorbitol, mannitol, maltitol, or lactitol. After inoculation, the total sugar concentration was about 160 g/L due to dilution by the seed culture. Initial pH was adjusted to 5.5 with 4 N H3PO4 solution. Mixing speed was set at 150 rpm. Fermentation was conducted at 33° C. and pH was not controlled. Samples were taken periodically. Samples were filtered through 0.22 micron filters, and the filtrates were analyzed by HPLC as described in General Methods for compounds including glucose, xylose, ethanol, xylitol, and acetic acid. Samples were diluted with medium (as described in General Methods) and the OD600 was measured to monitor cell growth. […] Cultures with sorbitol or mannitol grew faster and better. After 32 hours, the OD600 were 13.94 and 13.92, respectively, for cultures supplemented with sorbitol or mannitol; meanwhile, the OD600 were 9.48, 9.02, and 9.24, respectively, for cultures supplemented with erythritol, maltitol, or lactitol. […] The presence of sorbitol or mannitol allowed more xylose utilization, without production of xylitol.

[3] = tested on: ZW658 strain; test: Tube fermentation of ZW658 on glucose and xylose with various sugar alcohols (Example 13); details: sugar alcohol in the medium vs control
Procedure: as §1, §3
In eight sterilized 50 ml screw-cap centrifuge tubes (Cat. No. 21008-178, VWR International, USA), 200 μl of ZW658 strain glycerol stock at OD600 of approximately 10 was inoculated into each flask with 25 ml of aqueous solution containing 92 g/L glucose, 82 g/L xylose, 10 g/L yeast extract (YE), 2 g/L KH2PO4, 1 g/L MgSO4.7H2O, and either 10 mM of sorbitol, arabitol, adonitol (also called ribitol), or galactitol; or 50 mM of arabitol, adonitol, or galactitol. The control had no sugar alcohol added. Initial pH was adjusted to 5.5 with 4 N H3PO4 solution. Fermentation was conducted at 33° C. and pH was not controlled. Samples were taken periodically between 0 and 40 hr. Samples were filtered through 0.22 micron filters, and the filtrates were analyzed by HPLC as described in General Methods for glucose, xylose, xylitol, and ethanol. Samples were diluted with medium (as described in General Methods) and the OD600 was measured to monitor cell growth. Results of growth and glucose utilization are given in FIGS. 20A and 20B, respectively. Results of xylose utilization and ethanol production are given in FIGS. 21A and 21B, respectively. Cultures with sorbitol or galactitol grew much faster and better than the control. Cultures with adonitol also grew better. After 40 hours, the OD600 were 7 to 8, for cultures supplemented with sorbitol or galactitol; the OD600 were about 5, for cultures supplemented with adonitol; while the OD600 were less than 1 for other cultures. […] The presence of sorbitol, galactitol, or adonitol allowed more xylose utilization, without production of xylitol.

Molecule `OC[C@@H](O)[C@@H](O)[C@H](O)[C@@H](O)CO` [sorbitol] has an OD600 ([1]; 0.5 mM sorbitol) of 7.10, an OD600 ([1]; 1 mM sorbitol) of 8.08 and an OD600 ([1]; 2 mM sorbitol) of 8.62. For the same molecule, the OD600 ([1]; 10 mM sorbitol) was 10.1, the ethanol production ([2]; mixed sugars) was “ethanol production was also better” and the xylose utilization ([2]; mixed sugars) was “More xylose was utilized”. The OD600 ([2]; after 32 hours, total sugar about 160 g/L, 33° C.) was 13.94, the ethanol production [3] was “ethanol production was also better” and the xylose utilization [3] was “More xylose was utilized”.
